“Also recorded” adds a separate entry of the source.

Data set [1] deals with P. falciparum K1 strain. The data set can be described thus: P. falciparum growth inhibition (K1 strain). The data set is classed as cell-based. Particulars: Plasmodium falciparum, read-out: IC50 in K1 strain (μM) ± SEM.
The nature of data set [2]: In vivo toxicity assay in mice. Details: species or system BALB/c mice. Particulars: male mice. As to the method:
BALB/c female and male mice (Janvier Laboratories) were maintained with unlimited access to food and water under standard environmental conditions (20-24° C. and 12/12 h light/dark cycle). […] First, the lowest dose was intravenously injected to one female and one male mice. An oxygen stream of 4% isoflurane was used to anesthetize the mice, which were then maintained during the whole procedure (less than 3 minutes) with 2.5% isoflurane.
After the administration, mice were observed and different parameters related to their behavior (lethargy, motility alterations, seizures, coma, automutilation, aggressiveness, vocalizations, stereotyped movements) and physical conditions (pain, respiratory disturbances, tachycardia or bradycardia, dehydration, hair loss, body weight loss, dermatitis, bad hygiene, pruritus, tearing) were followed. If after 48 h no deleterious effects were observed, the following dose was administered to two other male and female mice.

The test system of data set [3] is Plasmodium berghei CTRP-GFP. The data set can be described thus: Gametocyte to ookinete transition inhibition. Type of data set: cell-based. As to conditions: up to a concentration of 2 μM. As to the method: Eight days before ookinete production, 200 μL of Plasmodium berghei CTRP-GFP (which expresses GFP when reaching ookinete stage) (Vlachou, D. et al., 2004) in cryopreservation solution (RBC pellet:RPMI:30% glycerol in water, 1:1:2) was administered i.p. to a BALB/c mouse. Four days later this mouse was the donor to infect i.p. with 5×10^7 parasitized red blood cells in 200 μL of PBS three mice that one hour before the infection had been pretreated i.p. with phenylhydrazine (120 μL of a 10 mg/mL solution in PBS).
For ookinete production, up to 1 mL of blood carrying gametocytes was collected from each animal by intracardiac puncture and diluted in 30 mL of ookinete medium: 10.4 g/L of RPMI supplemented with […], 0.05% w/v hypoxanthine, 0.02% w/v xanthurenic acid, 50 U/mL penicillin and 50 μg/mL streptomycin (Invitrogen), 20% heat-inactivated fetal bovine serum (FBS, Invitrogen), 25 mM HEPES, pH 7.4.
24 h later, samples were diluted 1:100 in PBS and analyzed in a LSRFortessa™ flow cytometer (BD Biosciences) set up with the 5 lasers, 20 parameters standard configuration. The GFP positive cell population was selected and counted using 488 nm laser excitation and a 525/40 nm emission collection filter. BD FACSDiva software (BD biosciences) was used in data collection, and Flowing Software 2.5.1 (Turku Centre for Biotechnology) was used for analysis.

Data set [4] deals with P. falciparum NF54-gexp02-Tom strain gametocytes. The data set can be described thus: microbe, parasite or virus in culture. The data set is classed as cell-based. Particulars: Plasmodium falciparum, NF54, 48 h, read-out: IC50 on early gametocytes. The procedure:
Cultures of the P. falciparum NF54-gexp02-Tom strain (developed and authenticated by Portugaliza, H. P. et al., 2019 and kindly provided by Prof. Alfred Cortes), were maintained in standard conditions in RPMI medium supplemented with 0.5% Albumax II and 2 mM choline, synchronized in ring stages with sorbitol lysis, and diluted to 2% parasitemia. To trigger sexual conversion, choline was removed from the medium and cultures were maintained in the same conditions for 48 h after synchronization (cycle 0). In the next cycle (cycle 1), parasites were treated with 50 mM N-acetylglucosamine (GlcNac) in order to kill asexual parasites, and maintained in RPMI supplemented with 10% human serum. Medium was refreshed daily and GlcNac was kept during 4 days.
Controls of untreated parasites as well as of parasites treated with a lethal dose of chloroquine were prepared. Gametocytemia was monitored daily by light microscopy until the majority of parasites (˜90%) could be identified as stage V gametocytes. At that point, Giemsa smears of each well were prepared and mature gametocytes were manually counted (10,000 cells were counted for each replica by two investigators blinded to group assignment). […] Afterwards, the culture was treated for 48 h with the drugs and the gametocytemia determined as above.

By IC50 is commonly meant the concentration at which inhibition is half-maximal. On to `COc1cc2c(cc1OC)C(=O)C(CC1CCN(CNc3c4c(nc5cc(Cl)ccc35)CCCC4)CC1)C2` (stereo not shown) [DONE3TCI], for which the IC50 in data set [1] turned out to be 0.36 ± 0.07 µM; in data set [4], 0.285 ± 0.056 µM. Moreover, the “dose at which toxicity starts being observed” value in data set [2] is recorded as 3 mg/kg. The “effect on ookinete development” value in data set [3] is reported as “did not have an observable effect; also recorded: does not show any observable effect”.

The values are drawn from patent US20240415825A1, “COMPOUNDS FOR THE TREATMENT OF MALARIA” (FUNDACIÓ INSTITUT DE BIOENGINYERIA DE CATALUNYA, priority 2021, published 2024).
